According to patent US9980943B2, “Methods of treating muscular dystrophy” (BOARD OF REGENTS OF THE NEVADA SYSTEM OF HIGHER EDUCATION, …, priority 2013, dated 2018):

Legend:
Assay type in all cases: cell-based, mouse
[1] = test system: β-galactosidase in CMV-LacZ C2C12 myoblasts; assay: CMV-LacZ secondary screen in C2C12 myoblasts (β-Gal stabilizing assay); conditions: CMV-LacZ C2C12 myoblasts
Outline: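 A secondary screen identifies compounds that stabilize β-gal independently of the native promoter, using CMV-LacZ C2C12 cells. Curves span 0.5–40 μM at six levels, in duplicate.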

[2] = test system: α7 integrin (LacZ reporter in α7βgal+/− myoblasts); assay: Myoblast α7+/LacZ integrin FDG assay (Burkin assay in myoblasts, 96-well); conditions: α7+/LacZ myoblasts, 96-well
[3] = test system: β-galactosidase in CMV-LacZ C2C12 myotubes; assay: CMV-LacZ secondary screen in C2C12 myotubes (β-Gal stabilizing assay); conditions: C2C12 CMV-LacZ myotubes, fold relative to DMSO
Outline: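 β-gal stabilization was measured in C2C12 myoblasts or myotubes stably transfected with a CMV-driven LacZ construct, using the FDG β-gal assay. Compounds were tested in dose-response at 0.5, 1, 5, 10, 20 and 40 μM, with two replicates per point.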

[4] = test system: α7 integrin (LacZ reporter in α7+/LacZ myotubes); assay: Myotube α7 integrin FDG assay (Burkin assay in myotubes, 96-well); conditions: myotubes

SMILES	CMV-LACZ in Myoblasts (β-galactosidase activity relative to DMSO) ([1]; 0.5 uM)	CMV-LACZ in Myoblasts (β-galactosidase activity relative to DMSO) ([1]; 1 uM)	CMV-LACZ in Myoblasts (β-galactosidase activity relative to DMSO) ([1]; 5 uM)	CMV-LACZ in Myoblasts (β-galactosidase activity relative to DMSO) ([1]; 10 uM)	CMV-LACZ in Myoblasts (β-galactosidase activity relative to DMSO) ([1]; 20 uM)	CMV-LACZ in Myoblasts (β-galactosidase activity relative to DMSO) ([1]; 40 uM)	Burkin Assay in Myoblasts, signal relative to DMSO ([2]; 0.5 uM)	Burkin Assay in Myoblasts, signal relative to DMSO ([2]; 1 uM)	Burkin Assay in Myoblasts, signal relative to DMSO ([2]; 5 uM)	Burkin Assay in Myoblasts, signal relative to DMSO ([2]; 10 uM)	Burkin Assay in Myoblasts, signal relative to DMSO ([2]; 20 uM)	Burkin Assay in Myoblasts, signal relative to DMSO ([2]; 40 uM)	CMV-LACZ in Myotubes, signal relative to DMSO ([3]; 0.5 uM)	CMV-LACZ in Myotubes, signal relative to DMSO ([3]; 1 uM)	CMV-LACZ in Myotubes, signal relative to DMSO ([3]; 5 uM)	CMV-LACZ in Myotubes, signal relative to DMSO ([3]; 10 uM)	CMV-LACZ in Myotubes, signal relative to DMSO ([3]; 20 uM)	CMV-LACZ in Myotubes, signal relative to DMSO ([3]; 40 uM)	Burkin Assay in Myotubes, α7 integrin LacZ reporter signal relative to DMSO ([4]; 0.5 uM)	Burkin Assay in Myotubes, α7 integrin LacZ reporter signal relative to DMSO ([4]; 1 uM)	further results
COc1cccc(CN2CCN(Cc3ccco3)CC2)c1.O=C(O)C(=O)O [MLS001211139-01]	0.9691	0.7347	0.9500	0.8608	1.0659	0.8744	1.2392	1.136	1.065	0.9683	1.218	1.216	0.9281	0.8948	1.1755	1.0196	0.8259	1.0224	1.167	1.288	Burkin Assay in Myotubes, α7 integrin LacZ reporter signal relative to DMSO ([4]; 5 uM): 1.003; Burkin Assay in Myotubes, α7 integrin LacZ reporter signal relative to DMSO ([4]; 10 uM): 0.9425; Burkin Assay in Myotubes, α7 integrin LacZ reporter signal relative to DMSO ([4]; 20 uM): 0.8283; Burkin Assay in Myotubes, α7 integrin LacZ reporter signal relative to DMSO ([4]; 40 uM): 0.7547
CC(O)CNc1nc2c(c(=O)n(Cc3ccc(Br)cc3)c(=O)n2C)n1C (stereo not drawn) [MLS001212319-01]	0.9129	1.2040	1.0840	0.8600	1.2056	1.0259	1.05	1.026	0.9412	0.8826	0.8529	0.782	1.1524	0.8152	0.9525	0.9253	0.9965	1.0706	1.134	1.139	Burkin Assay in Myotubes, α7 integrin LacZ reporter signal relative to DMSO ([4]; 5 uM): 0.9476; Burkin Assay in Myotubes, α7 integrin LacZ reporter signal relative to DMSO ([4]; 10 uM): 0.9201; Burkin Assay in Myotubes, α7 integrin LacZ reporter signal relative to DMSO ([4]; 20 uM): 0.7396; Burkin Assay in Myotubes, α7 integrin LacZ reporter signal relative to DMSO ([4]; 40 uM): 0.631
COc1ccc(OC)c(NC(=O)CN2CCC(NC(=O)c3ccccc3C)CC2)c1 [MLS001212882-01]	1.1409	1.1291	0.9792	1.0086	1.3230	1.0326	1.0132	1.07	1.049	0.9069	1.068	1.048	1.0238	0.8705	1.0963	1.1133	1.1471	1.3024	0.9814	1.023	Burkin Assay in Myotubes, α7 integrin LacZ reporter signal relative to DMSO ([4]; 5 uM): 0.9072; Burkin Assay in Myotubes, α7 integrin LacZ reporter signal relative to DMSO ([4]; 10 uM): 0.8877; Burkin Assay in Myotubes, α7 integrin LacZ reporter signal relative to DMSO ([4]; 20 uM): 0.8421; Burkin Assay in Myotubes, α7 integrin LacZ reporter signal relative to DMSO ([4]; 40 uM): 0.9107
